The values that follow come from patent US20210230313A1, “SULFUR-CONTAINING GLYCANS AND POLYSACCHARIDES AND METHODS OF CHEMOENZYMATIC SYNTHESIS THEREOF” (priority 2018, published 2021).

For assay [1], the system named is PmHS-B. Nature of the assay: Radiochemical incorporation assay, co-polymerization with UDP-[3H]GlcA, paper chromatography. The conditions noted are these: GAG synthase PmHS-B 1 mg/ml; test UDP-sugar 0.5 mM; UDP-[3H]GlcA 0.08 mM; 30° C., 5.5 hours; * = significant thio-sugar incorporation into polymer. The format is biochemical, Pasteurella multocida. The method, then:
(§1) For polymerization tests, for example, the various oligosaccharide acceptors were incubated with two types of UDP-sugars at 2 mM as noted under the same conditions as the single sugar extensions above. Radioactive UDP-sugars (e.g., UDP-[^3H]GlcA) were used to monitor co-polymerization reactions with the thiosugar-donors separated by various modes of chromatography. The general reaction catalyzed by a GAG synthase in these tests is:
(§2) n UDP-4S-HexNAc+n UDP-[^3H]GlcA+acceptor-->2n UDP+[4S-HexNAc+UDP-[^3H]GlcA]n-acceptor
(§3) where HexNAc is GlcNAc, GalNAc, or another sugar or sugar derivative. Reactions used radioactive UDP-GlcA (0.08 mM final; 0.1 microCi ^3H) and the authentic UDP-sugars (a positive control) or their thio-analogs (0.5 mM final) with a GAG synthase (1 mg/ml) in neutral pH buffer (50 mM Hepes, pH 7.2) with divalent cation (1 mM Mn^2+) at 30° C. for 5.5 hours (note: the HA [PmHAS] and chondroitin [PmCS] synthase reactions also employed the stabilizer 1M ethylene glycol). The reactions were quenched (2% SDS detergent), and analyzed by paper chromatography. The small radioactive UDP-sugar precursors are polymerized by the synthase, resulting in larger products (stay at the origin of the paper; any unused precursor migrates down the paper); such data is shown in Table 3.
(§4) Chimeric enzymes that included differing portions of both PmHS1 (GenBank Accession #AAL84702) and PmHS2 (GenBank Accession #AAQ55109) were created and tested for their ability to synthesize polymers from the sulfur-containing UDP-4-S-GlcNAc. As shown below in Table 2, the corresponding numbers describe the original residue numbers of the source parental synthase sequence as noted.
(§5) Overall, the Chimeric B construct (PmHS-B) appears to be the best catalyst tested thus far for incorporating 4-S-GlcNAc into a heparosan-like S-linked polymer.

Assay [2] has as its system PmHS-D. Described as above. The format is biochemical, Pasteurella multocida. The conditions noted are these: GAG synthase PmHS-D 1 mg/ml; test UDP-sugar 0.5 mM; UDP-[3H]GlcA 0.08 mM; 30° C., 5.5 hours. As for the experimental part: as §1, §2, §3, §4, §5
The test system of assay [3] is PmHS-I. The assay is described as above. The conditions noted are these: GAG synthase PmHS-I 1 mg/ml; test UDP-sugar 0.5 mM; UDP-[3H]GlcA 0.08 mM; 30° C., 5.5 hours. The format is biochemical, Pasteurella multocida. As for the experimental part:
as §1, §2, §3, §4, §5

In assay [4] the test system is PmHS-J. The assay is described as above. The conditions noted are these: GAG synthase PmHS-J 1 mg/ml; test UDP-sugar 0.5 mM; UDP-[3H]GlcA 0.08 mM; 30° C., 5.5 hours; * = significant thio-sugar incorporation into polymer. The format is biochemical, Pasteurella multocida. As for the experimental part: as §1, §2, §3, §4, §5
Assay [5] has as its system PmHS-G. Described as above. Type of assay: biochemical, Pasteurella multocida. The conditions noted are these: GAG synthase PmHS-G 1 mg/ml; test UDP-sugar 0.5 mM; UDP-[3H]GlcA 0.08 mM; 30° C., 5.5 hours; * = significant thio-sugar incorporation into polymer. As for the experimental part: as §1, §2, §3, §4, §5
In assay [6] the test system is PmHS-A. The description is as above. Type of assay: biochemical, Pasteurella multocida. The conditions noted are these: GAG synthase PmHS-A 1 mg/ml; test UDP-sugar 0.5 mM; UDP-[3H]GlcA 0.08 mM; 30° C., 5.5 hours. As for the experimental part:
as §1, §2, §3, §4, §5

The target of assay [7] is T1, bacterial heparin lyase III (Pedobacter heparinus, UniProt Q59289).
T1 sequence (Q59289 25-659): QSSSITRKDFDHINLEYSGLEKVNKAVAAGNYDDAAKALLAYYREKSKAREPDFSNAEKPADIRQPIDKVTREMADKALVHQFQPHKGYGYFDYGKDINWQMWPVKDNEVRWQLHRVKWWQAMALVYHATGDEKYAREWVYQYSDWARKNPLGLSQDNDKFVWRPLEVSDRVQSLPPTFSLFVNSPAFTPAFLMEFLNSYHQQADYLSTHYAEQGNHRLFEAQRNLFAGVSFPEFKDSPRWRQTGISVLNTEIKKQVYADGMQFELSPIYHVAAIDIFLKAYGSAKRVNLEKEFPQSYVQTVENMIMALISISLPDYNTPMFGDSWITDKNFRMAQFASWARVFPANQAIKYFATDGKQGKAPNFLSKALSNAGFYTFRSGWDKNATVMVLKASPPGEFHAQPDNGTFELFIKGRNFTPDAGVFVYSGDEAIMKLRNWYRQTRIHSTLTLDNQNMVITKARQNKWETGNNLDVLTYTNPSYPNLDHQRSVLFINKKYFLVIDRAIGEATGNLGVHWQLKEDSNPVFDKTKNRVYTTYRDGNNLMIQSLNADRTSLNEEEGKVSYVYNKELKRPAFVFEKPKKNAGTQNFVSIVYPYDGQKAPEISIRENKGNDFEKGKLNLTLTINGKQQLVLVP
Description: Heparin lyase III challenge of HEP polymers, PAGE analysis. The format is biochemical. The settings on record: 50 mM ammonium acetate, pH 7.0, 20 h at 30° C., loss of signal on PAGE (FIG. 8). As for the experimental part: Polymerization reactions and PAGE analysis. HEP trisaccharide (30 ng/ul) was incubated with 10 mM […] and either 10 mM 4-thio- or authentic UDP-GlcNAc, with PmHS-G (0.5 mg/ml), 1 mM MnCl2, and 50 mM Hepes, pH 7.2, for 20 h at 30° C. The reactions were then diluted in water and split into two aliquots, (i) a untreated control (−) and (ii) a heparin lyase III treated in 50 mM ammonium acetate, pH 7.0, for 20 h at 30° C. (+). The samples were then analyzed on a 6% 1×TBE PAGE (250 V, 15 min) and stained with 0.05% Alcian Blue followed by silver staining (BioRad Silver Stain kit).
Polymerization reactions producing longer HEP chains with either native (4-OH) or analog (4-SH) donors were analyzed for size on PAGE gels and stained. The gel depicts the polysaccharides made with both natural UDP-donors (native HEP) or by using the thio-GlcNAc analog and UDP-GlcA to form Hemi-A HEP.
Both polymers were challenged with bacterial heparin lyase III (+lanes). […] This finding is predicted as the enzyme digests the C—O—C glycosidic link that still exists in both types of HEP species.

Regarding `CC(=O)N[C@H]1[C@@H](OP(=O)(O)OP(=O)(O)OC[C@H]2O[C@@H](n3ccc(=O)[nH]c3=O)[C@H](O)[C@@H]2O)O[C@H](CO)[C@@H](S)[C@@H]1O` [UDP-4S-GlcNAc, UDP-4-SH-GlcNAc], the “3H radioactivity at the origin (dpm)” value in assay [1] is 800 * dpm; in assay [2], 42 dpm; in assay [3], 42 dpm; in assay [4], 480 * dpm; in assay [5] it was 510 * dpm.
With `CC(=O)N[C@H]1[C@@H](OP(=O)(O)OP(=O)(O)OC[C@H]2O[C@@H](n3ccc(=O)[nH]c3=O)[C@H](O)[C@@H]2O)O[C@H](CO)[C@@H](O)[C@@H]1O` [UDP-GlcNAc, UDP-N-acetylglucosamine], the “3H radioactivity at the origin (dpm)” value is listed as 9,020 dpm in assay [1]; 4,140 dpm in assay [2]; 3,900 dpm in assay [3]; 12,200 dpm in assay [4]; 8,900 dpm in assay [5]; 9,230 dpm in assay [6].
For “(-4-GlcA-1-beta-S-4-GlcNAc-1-alpha-O)n [Hemi-A HEP]”, in assay [7], the “Susceptibility to digestion by bacterial heparin lyase” value is given as “sensitive to digestion”.
